How the values were obtained:
[1] = molecular target: T1, Thymidine phosphorylase (Escherichia coli (strain K12), UniProt P07650); experiment: Thymidine Phosphorylase Inhibition Assay; conditions: 30 °C
Procedure: TP inhibition assay was performed spectrophotometrically in 96-well plate. […] The total reaction volume was 200 μL. 20 μL of TP enzyme (0.058 unit/well) was incubated with 10 μL of test compounds (0.5 mM) for 10 min at 30 C. […] Every experiment was run in triplicate.

[2] = molecular target: T1, Thymidine phosphorylase; experiment: Kinetic Assay; conditions: 30 °C

T1 sequence (P07650 whole entry): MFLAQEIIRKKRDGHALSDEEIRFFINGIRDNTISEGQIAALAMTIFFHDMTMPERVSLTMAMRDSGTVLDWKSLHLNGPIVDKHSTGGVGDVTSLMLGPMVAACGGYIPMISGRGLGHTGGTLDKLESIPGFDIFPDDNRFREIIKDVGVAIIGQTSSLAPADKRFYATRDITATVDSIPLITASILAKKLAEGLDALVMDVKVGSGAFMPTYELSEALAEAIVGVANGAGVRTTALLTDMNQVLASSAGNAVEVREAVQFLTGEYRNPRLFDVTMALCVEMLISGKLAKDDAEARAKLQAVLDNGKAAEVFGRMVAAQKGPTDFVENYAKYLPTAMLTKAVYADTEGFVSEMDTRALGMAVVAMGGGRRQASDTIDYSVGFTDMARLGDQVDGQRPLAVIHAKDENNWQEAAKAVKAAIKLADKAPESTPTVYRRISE

| SMILES | IC50 [1] [µM] | Ki [2] [µM] |
| --- | --- | --- |
| Cc1cn([C@H]2C[C@H](O)[C@@H](COC(=O)c3cccc(Br)c3)O2)c(=O)[nH]c1=O [5'-O-(3''-Bromobenzoyl)-thymidine (15)] | 33.3 | 11.4 |
| Cc1cn([C@H]2C[C@H](OC(=O)c3ccc(Br)cc3)[C@@H](COC(=O)c3ccc(Br)cc3)O2)c(=O)[nH]c1=O [5'-O-(4''-Bromobenzoyl)-thymidine-3'-O-4''-bromobenzoate (14)] | 7.5 | 7.81 |
| COc1ccccc1C(=O)OC[C@H]1O[C@@H](n2cc(C)c(=O)[nH]c2=O)C[C@@H]1O [5'-O-(2''-Methoxybenzoyl)-thymidine (11)] | 90 |  |
| Cc1cn([C@H]2C[C@H](OC(=O)c3ccc(Cl)cc3Cl)[C@@H](COC(=O)c3ccc(Cl)cc3Cl)O2)c(=O)[nH]c1=O [5'-O-(2'',4''-Dichlorobenzoyl)-thymidine-3'-O-2'',4''-dichlorobenzoate (13)] | 146 |  |
| Cc1ccc(C(=O)OC[C@H]2O[C@@H](n3cc(C)c(=O)[nH]c3=O)C[C@@H]2O)cc1 [5'-O-(4''-Methylbenzoyl)-thymidine (4)] | 18.5 | 12.5 |
| COc1ccc(C(=O)OC[C@H]2O[C@@H](n3cc(C)c(=O)[nH]c3=O)C[C@@H]2O)cc1 [5'-O-(4''-Methoxybenzoyl)-thymidine (10)] | 18.8 | 12.8 |

— BindingDB's records for doi:10.1016/j.bioorg.2016.11.007 (University of Karachi, 2017)
